According to patent US8722663B2, “Di-substituted pyridine derivatives as anticancers” (Otsuka Pharmaceutical Co., Ltd., priority 2010, dated 2014):
Where a name gives a salt, the structure may show the parent alone.

How the values were obtained:
[1] = test system: bicalutamide resistant human prostate cancer cell line established from LNCaP.FGC (LNCaP-Bic); assay: Growth inhibition of LNCaP-Bic cells, WST-8 assay; type: cell-based; conditions: 120 h, 5 days with test compound
Procedure: (§1) The growth inhibition on a bicalutamide resistant human prostate cancer cell line established from LNCaP.FGC (LNCaP-Bic) (Hobisch A, et al. Prostate. 2006; 66(4):413-20.) was determined by a WST-8 assay according to the method of Singh A K, et al. (Cancer Lett. 1996 Oct. 1; 107(1): 109-15.). In this method, LNCaP-Bic cells were seeded in RPMI 1640 medium containing 10% fetal bovine serum in a 96-well microplate and incubated at 37° C. for 24 hours in the presence of 5% carbon dioxide. Then, the test compound was added and the cells were incubated for another 5 days. After incubation, a 15-μL volume of WST-8 (2-(2-methoxy-4-nitrophenyl)-3-(4-nitrophenyl)-5-(2,4-[…])-2H-tetrazolium, monosodium salt) was added. After the incubation for the time, the color reaction was stopped by adding 15 μL of 1% SDS (sodium dodecyl sulfate) solution and the optical density was determined at the measurement wavelength of 450 nm and the reference wavelength of 630 nm, and the difference was calculated. The cell growth activity in each well was defined as the value determined by subtracting the OD in the control well not containing cells (the difference in absorbance between 450 nm and 630 nm) from that in the test well.
(§2) The 50% inhibitory concentration (IC50 (nM)) of the test compound was determined by comparing the cell growth activity in the well containing the test compound with that of the control not containing the test compound.

[2] = test system: human prostate (carcinoma) cell line (LNCaP.FGC); assay: Growth inhibition of LNCaP.FGC cells, WST-8 assay; type: cell-based; conditions: 120 h, 5 days with test compound
Procedure: as §1, §2
The growth inhibition on a human prostate (carcinoma) cell line (LNCaP.FGC) (van Bokhoven A, et al. Prostate. 2003; 57(3):205-25.) was also determined by the above method.

[3] = test system: human prostate (carcinoma) cell line (DU 145); assay: Growth inhibition of DU 145 cells, WST-8 assay; type: cell-based; conditions: 120 h, 5 days with test compound
Procedure: as §1, §2
The growth inhibition on a human prostate (carcinoma) cell line (DU 145) (van Bokhoven A, et al. Prostate. 2003; 57(3):205-25.) was also determined by the above method.

[4] = test system: human prostate (adenocarcinoma) cell line (PC-3); assay: Growth inhibition of PC-3 cells, WST-8 assay; type: cell-based; conditions: 120 h, 5 days with test compound
Procedure: as §1, §2
The growth inhibition on a human prostate (adenocarcinoma) cell line (PC-3) (van Bokhoven A, et al. Prostate. 2003; 57(3):205-25.) was also determined by the above method.

[5] = test system: human prostate (adenocarcinoma) cell line (VcaP); assay: Growth inhibition of VcaP cells, WST-8 assay; type: cell-based; conditions: 120 h, 5 days with test compound
Procedure: as §1, §2
The growth inhibition on a human prostate (adenocarcinoma) cell line (VcaP) (Korenchuk S, et al. In Vivo. 2001; 15(2):163-8.) was also determined by the above method.

[6] = test system: human breast cancer cell line (MDA-MB-468); assay: Growth inhibition of MDA-MB-468 cells, sulforhodamine B method; type: cell-based; conditions: 120 h, 5 days with test compound
Procedure: (§3) Growth inhibition of a human breast cancer cell line (MDA-MB-468) was determined by the sulforhodamine B method based on the method of Skehan P. et al. (J Natl Cancer Inst. 1990 Jul. 4; 82(13): 1107-12). In the study, MDA-MB-468 cells were seeded on DMEM medium containing 10% fetal bovine serum in a 96-well microplate. After 24-h incubation at 37° C. in the presence of 5% carbon dioxide, the test compound was added and the cells were incubated for another 5 days. After incubation, a trichloroacetic acid solution was added to yield the final concentration of 10% and the cells were left to stand at 4° C. for 1 hour to fix. Then, the cells were washed with water to remove the medium and trichloroacetic acid and dried in the air. The dried cells were stored at 4° C. until they were stained with sulforhodamine B. To each well, 1% acetic acid solution containing 0.4% sulforhodamine B was added and left to stand for 20 to 30 minutes at room temperature. After discarding the supernatant, each well was washed with 1% acetic acid solution, and 10 mM Tris([…]) solution was added while stirring to elute the dye taken into the cells. Then, the optical density was determined at the measurement wavelength of 492 nm and the reference wavelength of 690 nm, and the difference was calculated. The cell growth activity in each well was defined as the value determined by subtracting the OD in the control well not containing cells (the difference in absorbance between 492 nm and 690 nm) from that in the test well.
as §2

[7] = test system: human hepatic cancer cell line (HuH-7); assay: Growth inhibition of HuH-7 cells, sulforhodamine B method; type: cell-based; conditions: Homo sapiens, 120 h, 5 days with test compound
Procedure: as §3, §2
The growth inhibition on a human hepatic cancer cell line (HuH-7) was also determined by the above method.

[8] = test system: PSA; assay: Plasma levels of PSA in LNCaP-Bic tumor bearing nude mice, ELISA; type: in vivo; conditions: Mus musculus, po, 336 h; 10 mg/kg/day orally, once daily, 14 consecutive days; plasma PSA by ELISA; read-out: T/C(%) (10 mg/kg/day), plasma levels of PSA treated/control
Procedure: (§4) Human prostate cancer cells (LNCaP-Bic) were transplanted in nude mice (6 males/group) and the inhibitory effect of the invention on their growth was examined. In the study, the tumor cell suspension with matrigel was inoculated at 0.12 mL/body (2.4×10^6 cells/body) into the subcutaneous space of the right axillary region to prepare tumor bearing mice. When the tumor diameter became 5 mm or more, the animals were allocated to groups based on the tumor volume. The test compound was administered orally as a suspension in 5% gum arabic, once daily, for 14 consecutive days. The control group received 5% gum arabic. Tumor volumes were measured on the following day of the last administration. Tumors were removed and the wet weight of the tumor was measured using an electronic balance. The ratio of the tumor weight in the treated group to that in the control group (T/C %) was calculated as the index for the effect. T/C %=(Mean tumor weight in the treatment group/Mean tumor weight in the control group)×100.
The heparinized blood was collected from the postcava under diethylether anesthesia. The plasma levels of PSA were measured using ELISA. The ratio of the plasma levels of PSA in the treated group to that in the control group (T/C %) was calculated as the index for the effect. T/C %=(Mean plasma levels of PSA in the treatment group/Mean plasma levels of PSA in the control group)×100.

[9] = test system: Human prostate cancer cells (LNCaP-Bic); assay: Antitumor effect on LNCaP-Bic tumors transplanted in nude mice, tumor weight; type: in vivo; conditions: Mus musculus, po, 336 h, 10 mg/kg/day orally, once daily, 14 consecutive days, read-out: T/C(%) (10 mg/kg/day), tumor weight treated/control
Procedure: as §4

With `Cc1ccccc1COc1ccc(Oc2c(C)cc(/C=C/C(=O)N3CCN(Cc4ccc(CCOc5ccc(F)cc5)cc4)CC3)cc2Cl)nc1.Cl` [Example 448, (E)-3-[3-Chloro-5-methyl-4-({5-[(2-methylbenzyl)oxy]pyridin-2-yl}oxy)phenyl]-1-(4-{4-[2-(4-fluorophenoxy)ethyl]benzyl}piperazin-1-yl)prop-2-en-1-one hydrochloride] the IC50 [1] was < 10 nM, the IC50 [2] was < 10 nM and the IC50 [3] was < 10 nM. The IC50 [4] was < 10 nM, the IC50 [5] was < 10 nM and the IC50 [6] was < 0.01 µM. For the same molecule, the IC50 [7] was < 0.01 µM and the melting point was 210.3 to 210.6 °C.
For `COc1ccc(OCCc2ccc(CN3CCN(C(=O)/C=C/c4cc(C)c(Oc5ccc(OCc6ccc(C)cc6)cn5)c(Cl)c4)CC3)cc2)cc1.Cl` [Example 440, (E)-3-[3-Chloro-5-methyl-4-({5-[(4-methylbenzyl)oxy]pyridin-2-yl}oxy)phenyl]-1-(4-{4-[2-(4-methoxyphenoxy)ethyl]benzyl}piperazin-1-yl)prop-2-en-1-one hydrochloride], the response vs control in vivo at 10 mg/kg [8] was < 50%, the IC50 [1] was < 10 nM and the IC50 [2] was < 10 nM. For the same molecule, the response vs control in vivo at 10 mg/kg [9] was < 50%, the IC50 [3] was < 10 nM and the IC50 [4] was < 10 nM. For the same molecule, the IC50 [5] was < 10 nM and the melting point was 225.1 to 226.6 °C.
With `Cc1cc(/C=C/C(=O)N2CCN(Cc3ccc(CCOc4ccc(C(C)C)cc4)cc3)CC2)cc(Cl)c1Oc1ccc(OCc2ccc(F)cc2)cn1` [Example 438, (E)-3-[3-Chloro-4-({5-[(4-fluorobenzyl)oxy]pyridin-2-yl}oxy)-5-methylphenyl]-1-[4-(4-{2-[4-(propan-2-yl)phenoxy]ethyl}benzyl)piperazin-1-yl]prop-2-en-1-one hydrochloride] the response vs control in vivo at 10 mg/kg [8] was < 50%, the IC50 [1] was < 10 nM and the IC50 [2] was < 10 nM. The response vs control in vivo at 10 mg/kg [9] was < 50%, the IC50 [3] was < 10 nM and the IC50 [4] was < 10 nM. The IC50 [5] was < 10 nM, the IC50 [6] was < 0.01 µM and the IC50 [7] was < 0.01 µM.
For `Cc1cc(/C=C/C(=O)N2CCN(Cc3ccc(CCOc4ccc(C(C)C)cc4)cc3)CC2)cc(Cl)c1Oc1ccc(OCc2ccccc2Cl)cn1` [Example 608, (E)-3-[3-Chloro-4-({5-[(2-chlorobenzyl)oxy]pyridin-2-yl}oxy)-5-methylphenyl]-1-[4-(4-{2-[4-(propan-2-yl)phenoxy]ethyl}benzyl)piperazin-1-yl]prop-2-en-1-one hydrochloride], the IC50 [1] was < 10 nM, the IC50 [2] was < 10 nM and the IC50 [3] was < 10 nM. For the same molecule, the IC50 [4] was < 10 nM, the IC50 [5] was < 10 nM and the IC50 [6] was < 0.01 µM. For the same molecule, the IC50 [7] was < 0.01 µM.
For `Cc1cc(/C=C/C(=O)N2CCN(Cc3ccc(CCOc4ccc(Cl)cc4)cc3)CC2)cc(C)c1Oc1ccc(OCc2ccc(C#N)cc2)cn1.Cl` [Example 558, 4-{[(6-{4-[(E)-3-(4-{4-[2-(4-Chlorophenoxy)ethyl]benzyl}piperazin-1-yl)-3-oxoprop-1-en-1-yl]-2,6-dimethylphenoxy}pyridin-3-yl)oxy]methyl}benzonitrile hydrochloride], the IC50 [1] was < 10 nM, the IC50 [2] was < 10 nM and the IC50 [3] was < 10 nM. For the same molecule, the IC50 [4] was < 10 nM, the IC50 [5] was < 10 nM and the IC50 [7] was < 0.01 µM. It also gave a melting point of 219.7 to 220.7 °C.
With `Cc1cc(/C=C/C(=O)N2CCN(Cc3ccc(CCOc4ccc(C(C)C)cc4)cc3)CC2)cc(C)c1Oc1ccc(OCc2cscn2)cn1` [Example 600, (E)-3-(3,5-Dimethyl-4-{[5-(1,3-thiazol-4-ylmethoxy)pyridin-2-yl]oxy}phenyl)-1-[4-(4-{2-[4-(propan-2-yl)phenoxy]ethyl}benzyl)piperazin-1-yl]prop-2-en-1-one hydrochloride] the IC50 [1] was < 10 nM, the IC50 [2] was < 10 nM and the IC50 [3] was < 10 nM. The IC50 [4] was < 10 nM, the IC50 [5] was < 10 nM and the IC50 [7] was < 0.01 µM.
With `Cc1cc(/C=C/C(=O)N2CCN(Cc3ccc(CCOc4ccc(F)cc4)cc3)CC2)cc(Cl)c1Oc1ccc(OCc2ccc(Cl)cc2)cn1.Cl` [Example 429, (E)-3-[3-Chloro-4-({5-[(4-chlorobenzyl)oxy]pyridin-2-yl}oxy)-5-methylphenyl]-1-(4-{4-[2-(4-fluorophenoxy)ethyl]benzyl}piperazin-1-yl)prop-2-en-1-one hydrochloride] the response vs control in vivo at 10 mg/kg [8] was < 50%, the IC50 [1] was < 10 nM and the IC50 [2] was < 10 nM. The response vs control in vivo at 10 mg/kg [9] was < 50%, the IC50 [3] was < 10 nM and the IC50 [4] was < 10 nM. For the same molecule, the IC50 [5] was < 10 nM and the melting point was 224.4 to 228.8 °C.
With `Cc1ccc(COc2ccc(Oc3c(C)cc(/C=C/C(=O)N4CCN(Cc5ccc(CCOc6ccc(Cl)cc6)cc5)CC4)cc3Cl)nc2)cc1` [Example 408, (E)-3-[3-chloro-5-methyl-4-({5-[(4-methylbenzyl)oxy]pyridin-2-yl}oxy)phenyl]-1-(4-{4-[2-(4-chlorophenoxy)ethyl]benzyl}piperazin-1-yl)prop-2-en-1-one hydrochloride] the response vs control in vivo at 10 mg/kg [8] was < 50%, the IC50 [1] was < 10 nM and the IC50 [2] was < 10 nM. The response vs control in vivo at 10 mg/kg [9] was < 50%, the IC50 [3] was < 10 nM and the IC50 [4] was < 10 nM. For the same molecule, the IC50 [5] was < 10 nM, the IC50 [6] was < 0.01 µM and the IC50 [7] was < 0.01 µM.
With `Cc1cc(/C=C/C(=O)N2CCN(Cc3ccc(CCOc4ccc(C(C)C)cc4)cc3)CC2)cc(Cl)c1Oc1ccc(OCc2ccccc2F)cn1.Cl` [Example 454, (E)-3-[3-Chloro-4-({5-[(2-fluorobenzyl)oxy]pyridin-2-yl}oxy)-5-methylphenyl]-1-[4-(4-{2-[4-(propan-2-yl)phenoxy]ethyl}benzyl)piperazin-1-yl]prop-2-en-1-one hydrochloride] the IC50 [1] was < 10 nM, the IC50 [2] was < 10 nM and the IC50 [3] was < 10 nM. For the same molecule, the IC50 [4] was < 10 nM, the IC50 [5] was < 10 nM and the IC50 [6] was < 0.01 µM. The IC50 [7] was < 0.01 µM and the melting point was 188 to 189.5 °C.
